Tests used:
[1] = target: T1, α5β3γ2 receptor (Homo sapiens, UniProt P18507+P31644); assay: Supplementary data for cell level screening: new electrophysiology method (I. Lecker et al); assay type: cell-based; conditions: for Inverse agonism efficacy(%): new method, CsCl intracellular solution, GABA 0.1˜0.3 CM, other procedures as previous method; for inverse agonism efficacy of the compound/α5IA inverse agonism efficacy: ratio to the α5IA reference run above in the table (r4 or r29)
T1 construct: expressed in transfected cells; host or cells: HEK-293 (stably transfected)
Method: The inventors used electrophysiological methods to assay the inverse agonist efficacy of the substance to be tested. The detailed procedures are as follows: (1) Different subunits of GABAA receptors were expressed in human embryonic kidney cells 293 (HEK293). The cells were cultured in a culture medium and used as a cell model for screening potential analgesics. The α, β and γ subunits are necessary to form complete functional GABAA receptors. In this example, the inventor has established the following cell model: (a) α5 subunit (protein sequence is GenBank accession number: NP_001158509), β3 subunit (protein sequence is GenBank accession number: NP_068712) and γ2 subunit (protein sequence is GenBank accession number: NP_944494) were expressed in HEK-293 cell lines at the same time, which formed the complete functional GABAA receptors. (2) Cells were stably transfected HEK-293 cells expressing α5β3γ2 receptor, which were labeled by green fluorescent protein (GFP). Cells were grown in 10 cm dishes. The cells were passaged after reaching 80-90% confluence. During passaging, the culture medium was removed and discarded, 3 mL DMEM medium (Gibco™) was added to the dishes, the dishes were shaken slightly, and DMEM was removed and discarded. 3 mL Trypsin (Trypsin-EDTA 0.05%, Gibco™) was added and cells were digested at 37° C. for 3 minutes. Then 3 mL complete growth medium (DMEM+10% horse serum (Gibco™)) was added and the cells at the bottom of the culture dishes were dispersed. The cell suspension were transferred to a 15 mL centrifugal tube (Corning®) and then centrifuged at 200 g for 3 minutes. The supernatant was discarded, 4 mL complete growth medium was added, and the cells were resuspended by gently blowing. The cell suspension was diluted by 1:5 or 1:10 for subculturing. The cell suspension was diluted by 1:12 for electrophysiology experiment, which are added to the 24 well plate (Corning®) which has a glass slide pre-treated with poly-D-lysine. The cells were adhered to the slide before the experiment was conducted. The cells were maintained in culture for no more than 24 hours before use. (3) Compound concentration: for screening, all compounds were diluted to a final concentration of 100 nM. […] The compounds were at the concentration of 1 nM, 10 nM, 50 nM, 100 nM and 1000 nM in dose-inverse agonism efficacy (%) experiment. The whole cell patch clamp technique was used in electrophysiology experiments. The extracellular solution (ECS) contained: 150 mM NaCl, 5 mM KCl, 2.5 mM CaCl2, 1 mM MgCl2, 10 mM HEPES and 10 mM glucose (pH 7.4); […], 5 mM EGTA, 10 mM HEPES ([…] water). The currents were recorded by an EPC-10 amplifier and the PatchMaster software (HEKA). Patch electrodes with a resistance of 5-6 MΩ were pulled from borosilicate glass (Sutter). The diluted compounds were perfused by OCTAFLOWII system. GFP positive and independently growing cells were selected for recording. During recording, the membrane voltage was clamped at −60 mV. During experiment, the cells were firstly perfused with ECS for 20 seconds. When the baseline reached to a stable state, cells were then perfused with GABA solution. Then the current induced by GABA can be detected. After about 20-40 seconds, the current was stable. ECS was switched to compounds solution and the effects of the compounds were detected. At last, the perfusion solution was switched to ECS. The experiment was finished when the post-baseline returned to the pre-baseline before compounds perfusion. Only the data whose pre-baseline and post-baseline are at almost the same level were used for analysis. […] Then, compounds were diluted at the desired concentration in GABA ECS. (4) Currents were analyzed with the PatchMaster (HEKA) software. The GABA currents before (Ipre) and after (Ipost) compounds perfusion were recorded respectively. The efficacies of compounds were calculated by the following equation: inverse agonism efficacy=(Ipost-Ipre)*100/Ipre. N indicates experiment numbers. […]

[2] = target: T1, α5β3γ2 receptor; assay: Cell level screening: whole cell patch clamp, inverse agonist efficacy; assay type: cell-based; conditions: for inhibition at 0.1 µM: HEK293, compound 100 nM, GABA 0.05-0.1 μM, HEK293 α5β3γ2, clamped at −60 mV, (Ipost-Ipre)*100/Ipre, read-out: inverse agonism efficacy(%); for inverse agonism efficacy of the compound/α5IA inverse agonism efficacy: ratio to α5IA, compound 100 nM
Method: The inventors used electrophysiological methods to assay the inverse agonist efficacy of the substance to be tested. The detailed procedures are as follows: (1) Different subunits of GABAA receptors were expressed in human embryonic kidney cells 293 (HEK293). The cells were cultured in a culture medium and used as a cell model for screening potential analgesics. The α, β and γ subunits are necessary to form complete functional GABAA receptors. In this example, the inventor has established the following cell model: (a) α5 subunit (protein sequence is GenBank accession number: NP_001158509), β3 subunit (protein sequence is GenBank accession number: NP_068712) and γ2 subunit (protein sequence is GenBank accession number: NP_944494) were expressed in HEK-293 cell lines at the same time, which formed the complete functional GABAA receptors. (2) Cells were stably transfected HEK-293 cells expressing α5β3γ2 receptor, which were labeled by green fluorescent protein (GFP). Cells were grown in 10 cm dishes. The cells were passaged after reaching 80-90% confluence. During passaging, the culture medium was removed and discarded, 3 mL DMEM medium (Gibco™) was added to the dishes, the dishes were shaken slightly, and DMEM was removed and discarded. 3 mL Trypsin (Trypsin-EDTA 0.05%, Gibco™) was added and cells were digested at 37° C. for 3 minutes. Then 3 mL complete growth medium (DMEM+10% horse serum (Gibco™)) was added and the cells at the bottom of the culture dishes were dispersed. The cell suspension were transferred to a 15 mL centrifugal tube (Corning®) and then centrifuged at 200 g for 3 minutes. The supernatant was discarded, 4 mL complete growth medium was added, and the cells were resuspended by gently blowing. The cell suspension was diluted by 1:5 or 1:10 for subculturing. The cell suspension was diluted by 1:12 for electrophysiology experiment, which are added to the 24 well plate (Corning®) which has a glass slide pre-treated with poly-D-lysine. The cells were adhered to the slide before the experiment was conducted. The cells were maintained in culture for no more than 24 hours before use. (3) Compound concentration: for screening, all compounds were diluted to a final concentration of 100 nM. GABA was diluted at the concentration of 0.05-0.1 μM. The compounds were at the concentration of 1 nM, 10 nM, 50 nM, 100 nM and 1000 nM in dose-inverse agonism efficacy (%) experiment. The whole cell patch clamp technique was used in electrophysiology experiments. The extracellular solution (ECS) contained: 150 mM NaCl, 5 mM KCl, 2.5 mM CaCl2, 1 mM MgCl2, 10 mM HEPES and 10 mM glucose (pH 7.4); Patch electrodes were filled with an intracellular solution containing: 140 mM KCl, 5 mM EGTA, 10 mM HEPES (adjusted to pH 7.4 with KOH and to 320-330 mOsm with water). The currents were recorded by an EPC-10 amplifier and the PatchMaster software (HEKA). Patch electrodes with a resistance of 5-6 MΩ were pulled from borosilicate glass (Sutter). The diluted compounds were perfused by OCTAFLOWII system. GFP positive and independently growing cells were selected for recording. During recording, the membrane voltage was clamped at −60 mV. During experiment, the cells were firstly perfused with ECS for 20 seconds. When the baseline reached to a stable state, cells were then perfused with GABA solution. Then the current induced by GABA can be detected. After about 20-40 seconds, the current was stable. ECS was switched to compounds solution and the effects of the compounds were detected. At last, the perfusion solution was switched to ECS. The experiment was finished when the post-baseline returned to the pre-baseline before compounds perfusion. Only the data whose pre-baseline and post-baseline are at almost the same level were used for analysis. GABA was diluted at the concentration of 0.05-0.1 μM in ECS. Then, compounds were diluted at the desired concentration in GABA ECS. (4) Currents were analyzed with the PatchMaster (HEKA) software. […]

T1 sequence (P31644 32-462): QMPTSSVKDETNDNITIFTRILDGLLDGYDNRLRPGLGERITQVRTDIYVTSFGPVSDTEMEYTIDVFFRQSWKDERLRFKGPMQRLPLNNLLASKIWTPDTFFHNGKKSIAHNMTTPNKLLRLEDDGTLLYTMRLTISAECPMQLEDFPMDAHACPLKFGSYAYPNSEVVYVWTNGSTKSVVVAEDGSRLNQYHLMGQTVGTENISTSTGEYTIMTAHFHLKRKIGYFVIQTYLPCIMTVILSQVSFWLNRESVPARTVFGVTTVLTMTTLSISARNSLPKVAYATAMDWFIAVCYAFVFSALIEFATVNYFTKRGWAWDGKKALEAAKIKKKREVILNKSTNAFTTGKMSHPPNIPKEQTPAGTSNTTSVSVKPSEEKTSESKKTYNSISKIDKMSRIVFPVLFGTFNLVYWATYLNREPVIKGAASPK
T1 sequence (P28472 26-473 isoform P28472-2 partner limits assumed): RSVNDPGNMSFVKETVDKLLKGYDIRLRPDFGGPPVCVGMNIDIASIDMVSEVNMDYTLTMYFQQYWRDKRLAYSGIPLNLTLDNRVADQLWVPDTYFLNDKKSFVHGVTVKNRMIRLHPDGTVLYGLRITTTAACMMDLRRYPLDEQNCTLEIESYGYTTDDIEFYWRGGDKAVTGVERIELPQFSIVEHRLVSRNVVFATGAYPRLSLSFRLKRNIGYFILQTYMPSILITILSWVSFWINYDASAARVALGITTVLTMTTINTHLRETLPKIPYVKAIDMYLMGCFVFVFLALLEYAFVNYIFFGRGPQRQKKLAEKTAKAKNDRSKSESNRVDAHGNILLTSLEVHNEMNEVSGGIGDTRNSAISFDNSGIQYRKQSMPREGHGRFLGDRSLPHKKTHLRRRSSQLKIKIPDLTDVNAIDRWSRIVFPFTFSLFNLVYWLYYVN
T1 sequence (P18507 40-475): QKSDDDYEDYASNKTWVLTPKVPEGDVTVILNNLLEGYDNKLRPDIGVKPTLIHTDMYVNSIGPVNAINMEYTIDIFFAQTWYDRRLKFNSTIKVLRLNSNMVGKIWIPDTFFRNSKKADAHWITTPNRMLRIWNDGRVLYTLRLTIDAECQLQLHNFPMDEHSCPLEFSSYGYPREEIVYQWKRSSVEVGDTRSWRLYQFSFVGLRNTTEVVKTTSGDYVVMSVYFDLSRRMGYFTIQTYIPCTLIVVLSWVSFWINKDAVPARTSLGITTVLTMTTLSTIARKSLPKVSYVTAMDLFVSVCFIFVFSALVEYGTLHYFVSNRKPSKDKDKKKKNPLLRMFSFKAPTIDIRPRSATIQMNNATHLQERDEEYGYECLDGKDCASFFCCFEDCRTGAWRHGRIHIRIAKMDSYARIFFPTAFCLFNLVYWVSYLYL

Compound	Inverse agonism efficacy(%) [1] [%]	inverse agonism efficacy of the compound/α5IA inverse agonism efficacy [1]	inhibition at 0.1 µM [2] [%]	inverse agonism efficacy of the compound/α5IA inverse agonism efficacy [2]
Cc1cc(-c2nnc3c4ccccc4c(OCc4ccc(C(=O)NN5CCOCC5)cn4)nn23)no1 [Compound 01, 6-((3-(5-methylisoxazol-3-yl)-[1,2,4]triazolo[3,4-a]phthalazin-6-yloxy)methyl)-N-morpholinonicotinamide]	−18.67	1.075	58	2.572
Cc1cc(-c2nnc3c4ccccc4c(OCc4ccc(C(=O)N[C@H](C)CO)cn4)nn23)no1 [Compound 02, (R)—N-(1-hydroxypropan-2-yl)-6-((3-(5-methylisoxazol-3-yl)-[1,2,4]triazolo[3,4-a]phthalazin-6-yloxy)methyl)nicotinamide]	−21.33	1.229	52.2	2.313
Cc1cc(-c2nnc3c4ccccc4c(OCc4ccc(C(=O)N[C@H]5CCC[C@@H]5O)cn4)nn23)no1 [Compound 03, N-((1S,2S)-2-hydroxycyclopentyl)-6-(((3-(5-methylisoxazol-3-yl)-[1,2,4]triazolo[3,4-a]phthalazin-6-yl)oxy)methyl)nicotinamide]	−29.33	1.689	41.3	1.832
CC(C)NC(=O)c1ccc(COc2nn3c(-c4cc(CO)on4)nnc3c3ccccc23)nc1 [Compound 38, 6-(((3-(5-(hydroxymethyl)isoxazol-3-yl)-[1,2,4]triazolo[3,4-a]phthalazin-6-yl)oxy)methyl)-N-iso propylnicotinamide]	−52.5	3.023	40	1.774
O=C(NCCO)c1ccc(COc2nn3c(-c4cc(CO)on4)nnc3c3ccccc23)nc1 [Compound 39, N-(2-hydroxyethyl)-6-(((3-(5-(hydroxymethyl)isoxazol-3-yl)-[1,2,4]triazolo[3,4-a]phthalazin-6-yl)oxy)methyl)nicotinamide]	−26	1.497	49	2.174
O=C(c1ccc(COc2nn3c(-c4cc(CO)on4)nnc3c3ccccc23)nc1)N1CCS(=O)(=O)CC1 [Compound 40, (1,1-dioxidothiomorpholino)(6-(((3-(5-(hydroxymethyl)isoxazol-3-yl)-[1,2,4]triazolo[3,4-a]phthalazin-6-yl)oxy)methyl)pyridin-3-yl)methanone]	−25.5	1.468	29	1.286
COCCNC(=O)c1ccc(COc2nn3c(-c4cc(CO)on4)nnc3c3ccccc23)nc1 [Compound 43, 6-(((3-(5-(hydroxymethyl)isoxazol-3-yl)-[1,2,4]triazolo[3,4-a]phthalazin-6-yl)oxy)methyl)-N-(2-methoxyethyl)nicotinamide]	−35	2.015	27.9	1.239
O=C(NC1CCOC1)c1ccc(COc2nn3c(-c4cc(CO)on4)nnc3c3ccccc23)nc1 (stereo not drawn) [Compound 47, 6-(((3-(5-(hydroxymethyl)isoxazol-3-yl)-[1,2,4]triazol[3,4-a]phthalazin-6-yl)oxy)methyl)-N-(tetrahydrofuran-3-yl)nicotinamide]	−26.875	1.547	51.5	2.284
O=C(NC1CCC1)c1ccc(COc2nn3c(-c4cc(CO)on4)nnc3c3ccccc23)nc1 [Compound 48, N-cyclobutyl-6-(((3-(5-(hydroxymethyl)isoxazol-3-yl)-[1,2,4]triazolo[3,4-a]phthalazin-6-yl)oxy)methyl)nicotinamide]	−20	1.151	43.2	1.915
